Reference: article PMC8229775, “β-Thujaplicin Enhances TRAIL-Induced Apoptosis via the Dual Effects of XIAP Inhibition and Degradation in NCI-H460 Human Lung Cancer Cells” (Medicines, 2021)

Target: T1, X-linked inhibitor of apoptosis protein (XIAP) (Homo sapiens, UniProt P98170)
T1 construct: GST-tagged XIAP-BIR3 domain
Test: fluorescence polarization displacement of 5-FAM Smac/Diablo peptide from recombinant BIR3
Assay type: binding

T1 sequence (P98170 241-356 limits assumed): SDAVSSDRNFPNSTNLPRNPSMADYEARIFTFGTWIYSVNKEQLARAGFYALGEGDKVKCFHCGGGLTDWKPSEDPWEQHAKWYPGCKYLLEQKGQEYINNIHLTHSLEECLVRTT

Compound	IC50 [µM]
CCCCCCCCCCCC1=C(O)C(=O)C=C(O)C1=O [Embelin]	3.1 ± 0.6
O=c1cccccc1O [Tropolone]	83.1 ± 6.9
CC(C)c1cccc(=O)c(O)c1 [β-thujaplicin]	58.5 ± 2.8
CC(C)c1ccc(O)c(=O)cc1 [γ-thujaplicin]	56.2 ± 2.9
